These results are taken from paper PMC4170656 (Developmental cell, 2014).

Molecules are shown by their SMILES. Positions count from the first letter of the chain named.

Format in all cases: binding
For test [1], the target named is T1, His:ARD (ankyrin repeat domain of AKR2A) (Arabidopsis thaliana, UniProt Q9SAR5, Y294A).
T1 sequence (Q9SAR5 211-342 Y294A): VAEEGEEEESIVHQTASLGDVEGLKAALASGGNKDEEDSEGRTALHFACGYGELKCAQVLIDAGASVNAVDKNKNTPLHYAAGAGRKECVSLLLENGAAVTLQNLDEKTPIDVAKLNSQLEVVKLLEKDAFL
The test is described as follows: SPR sensorgrams, lipid vesicles on L1 chip. The conditions noted are these: POPG/POPC (50:50) vesicles; pH 7.4, 0.16 M NaCl, 23°C; L2 site.

The target of test [2] is T2, His:ARD (ankyrin repeat domain of AKR2A) (Arabidopsis thaliana, UniProt Q9SAR5, H223A).
T2 sequence (Q9SAR5 211-342 H223A): T1 sequence (Q9SAR5 211-342 Y294A) with H13A, A84Y
The test is described as follows: SPR sensorgrams, lipid vesicles on L1 chip. Particulars: POPG/POPC (50:50) vesicles; pH 7.4, 0.16 M NaCl, 23°C; L1 site.

Test [3] has as its target T3, His:ARD (ankyrin repeat domain of AKR2A) (Arabidopsis thaliana, UniProt Q9SAR5, N314A).
T3 sequence (Q9SAR5 211-342 N314A): T1 sequence (Q9SAR5 211-342 Y294A) with A84Y, N104A
Nature of the test: SPR sensorgrams, lipid vesicles on L1 chip. The conditions noted are these: POPG/POPC (50:50) vesicles; pH 7.4, 0.16 M NaCl, 23°C; L3 site.

Test [4] concerns the target T4, His:ARD (ankyrin repeat domain of AKR2A) (Arabidopsis thaliana, UniProt Q9SAR5, L315A).
T4 sequence (Q9SAR5 211-342 L315A): T1 sequence (Q9SAR5 211-342 Y294A) with A84Y, L105A
Nature of the test: SPR sensorgrams, lipid vesicles on L1 chip. Particulars: POPG/POPC (50:50) vesicles; pH 7.4, 0.16 M NaCl, 23°C; L3 site.

The target in test [5] is T5, His:ARD (ankyrin repeat domain of AKR2A) (Arabidopsis thaliana, UniProt Q9SAR5, R296A).
T5 sequence (Q9SAR5 211-342 R296A): T1 sequence (Q9SAR5 211-342 Y294A) with A84Y, R86A
Nature of the test: SPR sensorgrams, lipid vesicles on L1 chip. Particulars: POPG/POPC (50:50) vesicles; pH 7.4, 0.16 M NaCl, 23°C; L2 site.

The target of test [6] is T6, His:ARD (ankyrin repeat domain of AKR2A) (Arabidopsis thaliana, UniProt Q9SAR5, E246A).
T6 sequence (Q9SAR5 211-342 E246A): T1 sequence (Q9SAR5 211-342 Y294A) with E36A, A84Y
The test is described as follows: SPR sensorgrams, lipid vesicles on L1 chip. The conditions noted are these: POPG/POPC (50:50) vesicles; pH 7.4, 0.16 M NaCl, 23°C; L1 site.

For test [7], the target named is T7, His:AKR2A (full-length AKR2A) (Arabidopsis thaliana, UniProt Q9SAR5).
T7 sequence (Q9SAR5 1-342): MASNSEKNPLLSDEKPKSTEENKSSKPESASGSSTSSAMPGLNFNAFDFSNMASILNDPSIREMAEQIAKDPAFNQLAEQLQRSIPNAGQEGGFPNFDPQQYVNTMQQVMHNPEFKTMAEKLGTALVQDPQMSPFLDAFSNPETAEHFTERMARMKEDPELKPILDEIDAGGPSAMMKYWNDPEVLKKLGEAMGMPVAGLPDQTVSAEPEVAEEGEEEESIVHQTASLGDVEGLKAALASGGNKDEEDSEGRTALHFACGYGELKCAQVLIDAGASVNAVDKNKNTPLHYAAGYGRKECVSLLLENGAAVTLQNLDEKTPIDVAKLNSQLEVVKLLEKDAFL
Nature of the test: SPR, lipid vesicles on L1 chip. The conditions noted are these: POPG/POPC/MGDG [50:(50−x):x] vesicles; pH 7.4, 0.16 M NaCl, 23°C.

For the molecule `CCCCCCCC/C=C\CCCCCCCC(=O)O[C@H](COC(=O)CCCCCCCCCCCCCCC)COP(=O)(O)OCC(O)CO` (stereo partly shown) [POPG], the “SPR sensorgrams, lipid vesicles on L1 chip” value is “the L2 site mutants (Y294A and R296A) showed significantly lower binding than WT” in test [1]; “The L1 site mutants H223A and E246A also had a significantly lower binding affinity” in test [2]; “the L3 site mutants (N314A and L315A) showed only modestly reduced binding” in test [3]; “the L3 site mutants (N314A and L315A) showed only modestly reduced binding” in test [4]; “the L2 site mutants (Y294A and R296A) showed significantly lower binding than WT” in test [5]; “The L1 site mutants H223A and E246A also had a significantly lower binding affinity” in test [6]. Also, the “SPR, lipid vesicles on L1 chip” value in test [7] was “MGDG-dependent vesicle binding of full-length (FL) AKR2A (red) and ARD (blue)”.
